Values after ≈ are worked out from the molar mass of the structure shown. Structures can show the parent of a compound that is named as a salt. Where two headings read alike, the source gives them in different places.
How the values were obtained:
[1] = target: T1, t-P2Y1 (Meleagris gallopavo, UniProt P49652); experiment: Calcium mobilization assay, t-P2Y1 transfected 1321N1 astrocytoma cells; format: cell-based; settings: for IC50: Ca2+ mobilization inhibition, transfected 1321N1 cells, read-out: IC50 ± SEM t-P2Y1; for IC50 / inhibition at 100 µM: 100 μM ADP; for inhibition at 100 µM: 1321-N1, final conc of 100 μM
T1 construct: host or cells: human 1321N1 astrocytoma cells, stably transfected
Method: (§1) Dr. Gary A. Weisman provided human-1321N1 astrocytoma cells that had been transfected by the tP2Y1R, hP2Y2R, hP2Y4R, and rP2Y6R and untransfected 1321N1 astrocytoma cells (University of Missouri Mo., Bond Life Science Center). The DMEM Dulbecco’s Modified Eagle -Medium (Gibco) was added in flasks to cultivate the cell line. 10% of the Fetal bovine serum was also added to the media together with 500 μg/mL of Geneticin (G418) and 1% of the Pen/Strep. The cells in T-75 flask were then cultured and incubated in a CO2 incubator which was maintained at (5%) and 37°C temperature until 90% of the cells were confluent. Throughout the experiment, cells were periodically checked for the confluency and strictly watched for the microbial contamination.
(§2) The FLUOstar Galaxy (BMG LABTECH GmbH, Ortenberg, Germany) microplate reader with two injectors was used to measure the Ca^2+ fluorescence of synthetic compounds. For this assay, 1321N1 transfected cells (t-P2Y1, h-P2Y2, h-P2Y4, and r-P2Y6) were cultured in T-75 flask. When cells reached the confluency of 80%–90%, they were washed with PBS and then Trypsin was added. After trypsinization for 3 min, 20,000 cells/well were allowed to seed in a black wall and 96 well clear bottom plate which was coated with Poly-D-Lysine and allowed to incubate for 24 h in 37°C, 5% CO2 incubator. After incubation, 200 μL culture media was changed with 100 μL HBSS containing Fura-2 AM which is calcium chelating dye and allowed the plate to incubate for 45 min in dark at temp of 37°C in incubator which is maintained with carbon dioxide (5% CO2). After incubation for 45 min, synthesized molecules were added to HBSS washed cells in each well of 96 well plate and re-incubated for 30 min at 37°C. In next step, injection of the endogenous ligand such as ADP through the injector was followed by excitation and emission measurements of Fura-2 AM at 380/520 nm and 340/520. Final volume of the assay per well 200 μL. IC50 values were computed for the compounds displaying more than 50% of activity using Prism 5.0 software (Graph Pad., Inc., San Diego. California, United States) by using analysis i.e., nonlinear regression ([Kassack et al., 2002]; [Ullmann et al., 2005]).

[2] = target: T2, h-P2Y4 (Homo sapiens, UniProt P51582); experiment: Calcium mobilization assay, h-P2Y4 transfected 1321N1 astrocytoma cells; format: cell-based; settings: 500 μM UTP; for IC50: Ca2+ mobilization inhibition, transfected 1321N1 cells, read-out: IC50 ± SEM h-P2Y4; for inhibition at 100 µM: 1321-N1, final conc of 100 μM, read-out: % Inhibition h-P2Y4
T2 construct: host or cells: human 1321N1 astrocytoma cells, stably transfected
Method: as §1, §2

[3] = target: T3, r-P2Y6 (Rattus norvegicus, UniProt Q63371); experiment: Calcium mobilization assay, r-P2Y6 transfected 1321N1 astrocytoma cells; format: cell-based; settings: for inhibition at 100 µM: 1321-N1, final conc of 100 μM; for inhibition at 100 µM / IC50: 100 μM of UDP; for IC50: Ca2+ mobilization inhibition, transfected 1321N1 cells, read-out: IC50 ± SEM r-P2Y6
T3 construct: host or cells: human 1321N1 astrocytoma cells, stably transfected
Method: as §1, §2

[4] = Aqueous solubility assay (UV absorption); format: physicochemical
Method: In eppendorf tubes, over-saturated chemical solutions were prepared by mixing synthesized compound with PBS buffer (pH 7.4). To confirm compound saturation, suspensions were rapidly vortexed for 1 min, sonicated at ambient temperature for 10 min, and then incubated with overnight shaking. After that, compound suspensions were centrifuged at 15,000 RPM for 20 min. Supernatants were cautiously taken out of the tubes and filtered once more using 0.22 µm syringe filters. By using UV-vis absorption spectrometry with standard curves and an already-determined absorption extinction coefficient in the same buffer, the concentrations of the drug in the supernatants were identified.

[5] = MTT assay, HeLa; format: cell-based; settings: human, HeLa cells; at 50 µM; triplicate; read-out: HeLa Cell Line (%cytotoxicity ±SEM)
[6] = MTT assay, HEK-293; format: cell-based; settings: human, HEK-293 cells; at 50 µM; triplicate; read-out: HEK-293 Cell Line (%cytotoxicity ±SEM)
[7] = MTT assay, non-transfected 1321N1 astrocytoma cells; format: cell-based, human; settings: human, non-transfected 1321N1 astrocytoma cells; at 50 µM; non-transfected astrocytoma 1321N1 cells; triplicate; read-out: H-1321N1 Cell Line (%cytotoxicity ±SEM)
Method: A 96-well plate was used to plate 20,000 human 1321N1 astrocytoma cells and allowed for incubation for 24 h at temp of 37°C in CO2 (5%) incubator. Next to this, the prepared culture media was changed to media which was free from FBS, the test compounds were added and the incubation process was repeated. After incubation of 24 h, the serum free media from the wells was discarded, and 100 μL of the reagent i.e., MTT reagent was pipetted. Plate was then additionally incubated at 37°C for 4 h. Utilizing a microplate reader, absorbance was determined at 570 nm and 630 nm for calculation of cell viability (FLUOstarOmega Microplate Reader-BMG LABTECH GmbH, Ortenberg, Germany) ([Sauer et al., 2009]).

[8] = target: T4, h-P2Y2 (Homo sapiens, UniProt P41231); experiment: Calcium mobilization assay, h-P2Y2 transfected 1321N1 astrocytoma cells; format: cell-based; settings: 500 μM ATP; for IC50: Ca2+ mobilization inhibition, transfected 1321N1 cells, read-out: IC50 ± SEM h-P2Y2; for inhibition at 100 µM: 1321-N1, final conc of 100 μM
T4 construct: host or cells: human 1321N1 astrocytoma cells, stably transfected
Method: as §1, §2

[9] = was reported; cited from earlier work
[10] = target: hP2Y1; set-up: method as in Peng et al., 2018; settings: Figure 1, reported antagonist; ref Peng et al., 2018; cited from earlier work
[11] = test system: P2Y12; set-up: method as in Oestreich, 2010; Boldron et al., 2014; settings: Figure 1, reported antagonists; ref Oestreich, 2010; Boldron et al., 2014; cited from earlier work
[12] = test system: P2X3; set-up: method as in Bae et al., 2022; settings: Figure 1, reported antagonist; ref Bae et al., 2022; cited from earlier work

T2 sequence (P51582 whole entry): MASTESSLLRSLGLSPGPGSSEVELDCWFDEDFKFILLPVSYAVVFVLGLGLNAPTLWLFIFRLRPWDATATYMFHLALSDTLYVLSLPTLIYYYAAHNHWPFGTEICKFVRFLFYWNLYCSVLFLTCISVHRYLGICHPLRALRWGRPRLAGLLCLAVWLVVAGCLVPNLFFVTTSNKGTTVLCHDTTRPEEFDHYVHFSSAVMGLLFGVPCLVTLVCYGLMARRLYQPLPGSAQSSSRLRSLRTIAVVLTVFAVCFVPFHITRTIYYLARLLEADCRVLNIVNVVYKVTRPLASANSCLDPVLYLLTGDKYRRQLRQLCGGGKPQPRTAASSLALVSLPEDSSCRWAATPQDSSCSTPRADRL
T3 sequence (Q63371 whole entry): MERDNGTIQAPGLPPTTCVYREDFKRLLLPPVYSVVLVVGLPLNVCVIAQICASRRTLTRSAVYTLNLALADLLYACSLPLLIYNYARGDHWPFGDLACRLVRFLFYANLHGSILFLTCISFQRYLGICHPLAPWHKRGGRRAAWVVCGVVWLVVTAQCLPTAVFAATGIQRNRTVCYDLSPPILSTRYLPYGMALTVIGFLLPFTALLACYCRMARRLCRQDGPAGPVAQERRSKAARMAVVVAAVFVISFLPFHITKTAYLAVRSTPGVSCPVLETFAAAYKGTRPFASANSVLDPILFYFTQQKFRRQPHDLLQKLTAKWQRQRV
T4 sequence (P41231 whole entry): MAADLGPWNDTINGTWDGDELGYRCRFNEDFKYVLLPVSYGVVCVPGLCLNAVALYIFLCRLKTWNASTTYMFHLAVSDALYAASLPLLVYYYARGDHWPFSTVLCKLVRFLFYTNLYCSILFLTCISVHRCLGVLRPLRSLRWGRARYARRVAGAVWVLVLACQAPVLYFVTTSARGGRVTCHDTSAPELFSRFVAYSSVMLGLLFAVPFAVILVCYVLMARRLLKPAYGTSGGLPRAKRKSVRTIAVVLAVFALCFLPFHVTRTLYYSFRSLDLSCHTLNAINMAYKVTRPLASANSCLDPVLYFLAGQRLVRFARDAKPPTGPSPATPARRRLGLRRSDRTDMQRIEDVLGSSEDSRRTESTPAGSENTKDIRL
T1 sequence (P49652 whole entry): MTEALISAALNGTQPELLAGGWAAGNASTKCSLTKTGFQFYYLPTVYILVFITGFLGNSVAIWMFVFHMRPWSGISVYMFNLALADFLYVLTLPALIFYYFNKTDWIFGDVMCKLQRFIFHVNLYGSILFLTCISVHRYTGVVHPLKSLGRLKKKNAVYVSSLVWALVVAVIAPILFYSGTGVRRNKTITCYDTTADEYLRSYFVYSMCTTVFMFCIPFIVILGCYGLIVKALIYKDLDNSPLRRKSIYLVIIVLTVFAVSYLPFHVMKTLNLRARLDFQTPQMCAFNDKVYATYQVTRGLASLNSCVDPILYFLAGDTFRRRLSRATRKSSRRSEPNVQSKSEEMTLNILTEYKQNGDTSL

Compound	IC50 [1] [µM]	inhibition at 100 µM [3] [%]	melting point [°C]	cytotoxicity at 24 h, 50 µM [5] [%]	cytotoxicity at 24 h, 50 µM [6] [%]	cytotoxicity at 24 h, 50 µM [7] [%]	inhibition at 100 µM [2] [%]	inhibition at 100 µM [8] [%]	other results
Nc1nc2cc(Cl)ccc2n1C(=O)NS(=O)(=O)c1cc(Cl)cc(Cl)c1O [1h, 2-Amino-5-chloro-N-((3,5-dichloro-2-hydroxyphenyl)sulfonyl)-1H-benzo [d]imidazole-1-carboxamide]	0.19 ± 0.04	34	124 to 126	22.3 ± 0.8	27.4 ± 1.2	32.8 ± 0.7			inhibition of P2Y2 less as compared to P2Y1 ([1]; P2Y2 versus P2Y1): 20 fold; IC50 [2]: 0.91 ± 0.04 µM; activity against P2Y6 in words [3]: inactive; solubility ([4]; Figure 7, UV absorption at 384 nm): 287 µg/mL (≈ 659 µM); solubility ([4]; aqueous buffer, thermodynamic from solid, PBS buffer (pH 7.4), UV absorption spectroscopy, read-out: aqueous solubility): 287 µg/mL (≈ 659 µM); IC50 [8]: 4.13 ± 1.02 µM
O=C(NS(=O)(=O)c1ccccc1)n1c(Cl)nc2ccccc21 [1q, 2-Chloro-N-(phenylsulfonyl)-1H-benzo [d]imidazole-1-carboxamide]	14.6 ± 1.01	48	179 to 181	29.7 ± 1.1	30.1 ± 0.2	33.6 ± 0.7	13		IC50 [8]: 13.6 ± 1.97 µM
O=C(NS(=O)(=O)c1ccc(-c2ccccc2)cc1)n1c(Cl)nc2ccccc21 [1r, N-([1.1′-biphenyl]-4-ylsulfonyl)-2-chloro-1H-benzo [d]imidazole-1-carboxamide]	23.44 ± 0.22	34	172 to 174	26.5 ± 0.5	33.2 ± 0.1	31.5 ± 0.4	22	47	
O=C(NS(=O)(=O)c1ccc(Cl)cc1)n1c(Cl)nc2ccccc21 [1s, 2-Chloro-N-((4-chlorophenyl)sulfonyl)-1H-benzo [d]imidazole-1-carboxamide]	3.11 ± 0.23		180 to 182	19.5 ± 0.2	12.1 ± 0.7	14.4 ± 0.2			IC50 [2]: 2.67 ± 0.07 µM; IC50 [3]: 12.7 ± 1.02 µM; IC50 [8]: 6.15 ± 1.08 µM
O=C(NS(=O)(=O)c1ccc([N+](=O)[O-])cc1)n1c(Cl)nc2ccccc21 [1t, 2-Chloro-N-((4-nitrophenyl)sulfonyl)-1H-benzo [d]imidazole-1-carboxamide]	6.04 ± 1.03		166 to 168	20.3 ± 0.4	21.4 ± 1.1	27.6 ± 0.4	26	42	IC50 [3]: 12.4 ± 1.1 µM
COc1ccc(S(=O)(=O)NC(=O)n2c(OC)nc3ccccc32)cc1 [1u, 2-Methoxy-N-((4-methoxyphenyl)sulfonyl)-1H-benzo [d]imidazole-1-carboxamide]		18	177 to 179	21.7 ± 0.6	32.2 ± 0.9	25.5 ± 0.3	30	10	inhibition at 100 µM [1]: 31%
COc1nc2ccccc2n1C(=O)NS(=O)(=O)c1ccc(Cl)cc1 [1v, N-((4-chlorophenyl)sulfonyl)-2-methoxy-1H-benzo [d]imidazole-1-carboxamide]		19	152 to 154	24.1 ± 0.3	12.2 ± 0.7	19.7 ± 0.1	23	19	inhibition at 100 µM [1]: 42%
Cc1ccc(S(=O)(=O)NC(=O)n2c(N)nc3ccccc32)cc1 [1w, 2-Amino-N-tosyl-1H-benzo [d]imidazole-1-carboxamide]		39	165 to 167	21.3 ± 0.5	27.4 ± 0.3	23.2 ± 0.3	41	23	inhibition at 100 µM [1]: 49%
Cc1ccc(S(=O)(=O)NC(=O)n2c(N)nc3cc(Cl)ccc32)cc1 [1x, 2-Amino-5-chloro-N-tosyl-1H-benzo [d]imidazole-1-carboxamide]	10 ± 0.12	41	188 to 190	29.8 ± 1.5	32.1 ± 0.7	12.6 ± 0.5	29	38	
Nc1nc2ccccc2n1C(=O)NS(=O)(=O)c1ccc(-c2ccccc2)cc1 [1y, N-([1.1′-biphenyl]-4-ylsulfonyl)-2-amino-1H-benzo [d]imidazole-1-carboxamide]		23	176 to 178	32.6 ± 0.3	39.7 ± 0.2	43.1 ± 0.8	18	20	inhibition at 100 µM [1]: 12%
CC(C)(C)c1ccccc1Oc1ncccc1NC(=O)Nc1ccc(OC(F)(F)F)cc1 [BPTU, 1-(2-(2-tert-butyl-phenoxy)pyridin-3-yl)-3–4-(trifluoromethoxy) phenylurea]									solubility in water [9]: less than 0.1 mg/mL; Ki [10]: 0.006 µM
CNc1cc2[nH]c(=O)n(-c3ccc(NC(=O)NS(=O)(=O)c4ccc(Cl)s4)cc3)c(=O)c2cc1F [Elinogrel]									IC50 [11]: 0.02 µM
Cc1nc2c([nH]1)C(=O)C(Cl)=C(Nc1ccc(F)c(F)c1)C2=O [KCB77033]									IC50 [12]: 1.03 µM
CCCC(=O)c1cnn(-c2ccc(NC(=O)c3cn(CC(=O)N4CCNCC4)c4ccc(Cl)cc34)nn2)c1C [SAR 216471 hydrochloride]									IC50 [11]: 0.017 µM

— article PMC10250618, “Synthesis, structure-activity relationships and biological evaluation of benzimidazole derived sulfonylurea analogues as a new class of antagonists of P2Y1 receptor” (Frontiers in Pharmacology, 2023)
